Common to all, as to test: NCI tumour cell line growth inhibition, 48 h
For assay [1], the system named is HL-60(TB) leukemia.
Assay [2] relates to HOP-62 NSCLC.
Assay [3] deals with K-562 leukemia.
Assay [4] concerns MCF7 breast.
Assay [5] has as its system NCI-H23 lung.
Assay [6] relates to RXF 393 renal.
Assay [7] concerns SK-MEL-5 melanoma.
For assay [8], the system named is SN12C renal.
Assay [9] has as its system SNB-19 CNS.
The subject of assay [10] is T-47D breast.

SMILES strings stand for the structures. Values joined by “and” are separate entries in the source; they are usually repeats but may differ in a detail not shown here. Identical values can stand only once.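 Grown in 96-well plates, cells were treated for 48 hours with each compound at five concentrations. Insufficient inhibition: endpoint recorded as highest concentration tested. Abbreviation: GI50, concentration required for 50% inhibition of growth. TGI: concentration producing complete growth inhibition.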

Turning to `CC1(C)CC([P+](c2ccccc2)(c2ccccc2)c2ccccc2)=NN1`, the GI50 in assay [1] was 1.91 µM; in [2] it was 7.4 µM; in [3] it was 3.55 µM; in [4], 2.46 µM; in assay [5], 4.28 µM; in assay [6], 28.2 µM. Besides, the GI50 was 3.13 µM in assay [7], 4.39 µM in assay [8], 5.03 µM in assay [9] and 0.91 µM in [10]. Also, the TGI in [1] was 9.19 µM; in [2], above 100 µM; in assay [3], above 100 µM; in assay [4], above 100 µM; in assay [5] it was above 100 µM; in assay [6], above 100 µM. In addition, the TGI in [7] is 17.7 µM; in [8] it was above 100 µM; in assay [9], above 100 µM; in assay [10] it was 8.44 µM.
As for `COc1cc(NC(=O)NCc2ccco2)ccc1-c1ccc(NC(=O)NCc2ccco2)cc1OC`, the GI50 is above 100 µM in assay [1]; 1.94 µM in assay [2]; 0.773 µM in assay [3]; 1.49 µM in assay [4]; 2.99 µM in assay [5]; 1.88 µM in [6]. Besides, the GI50 in assay [7] was 0.93 µM; in [8], 3.17 µM; in [9], 3.22 µM; in assay [10], 2.38 µM. In addition, the TGI was above 100 µM in [1]; 11.3 µM in assay [2]; above 100 µM in assay [3]; 4.68 µM in [4]; 11 µM in assay [5]; 6.22 µM in assay [6]. Moreover, the TGI in assay [7] is 21.4 µM; in [8], 23.3 µM; in [9], 17.2 µM; in assay [10], above 100 µM.
As for `COc1cc(F)c(/C=C/c2cc(/C=C/c3cc(OC)c(OC)cc3F)n(-c3cc(F)cc(F)c3)n2)cc1OC`, the GI50 was above 100 µM in [1]; 4.01 µM in [2]; 3.08 µM in [3]; 2.99 µM in [4]; 2.53 µM in assay [5]; 5.07 µM in [6]. The GI50 in assay [7] is 2.84 µM; in assay [8] it was 2.04 µM; in assay [9], 2.37 µM; in assay [10], 3.46 µM. Also, the TGI in assay [1] is above 100 µM; in [2], 17.1 µM; in assay [3] it was above 100 µM; in assay [4] it was 17.3 µM; in [5], 7.15 µM; in [6], 18.4 µM. For the same molecule, the TGI was determined as 9.38 µM in assay [7], 4.42 µM in assay [8], 5.52 µM in [9] and 20.7 µM in [10].
`Cc1ccc(Nc2cc(C)nc(NCCCNc3ccnc4cc(Cl)ccc34)n2)cc1`: the GI50 is 1.84 µM in [1]; 1.38 µM in assay [2]; 1.16 µM in assay [4]; 1.78 µM in assay [5]; 1.4 µM in assay [7]; 1.49 µM in assay [8]. The GI50 in assay [9] and in assay [10] was 1.75 µM throughout. In addition, the TGI in assay [1] came to 4.81 µM; in assay [2], 2.78 µM; in assay [4], 2.72 µM; in assay [5], 3.63 µM; in assay [7], 2.71 µM; in assay [8], 3.11 µM. In addition, the TGI stood at 3.84 µM in assay [9] and 4.14 µM in assay [10].
In the case of `CC(C)C[C@H](NC(=O)CCn1ccc2ncccc2c1=O)B(O)O`, the GI50 in assay [1] is 6.88 µM; in [2] it was 21.7 µM; in assay [3] it was 13.2 µM; in assay [4], 3.88 µM; in assay [5] it was 14.9 µM; in assay [6], 3.54 µM. The GI50 was 3.97 µM in [7], 18.9 µM in assay [8], 32.6 µM in [9] and 5.31 µM in assay [10]. For the same molecule, the TGI is above 100 µM in assay [1]; above 79 µM in assay [2]; above 100 µM in assay [3]; above 100 µM in [4]; above 100 µM in assay [5]; 15.2 µM in assay [6]. Moreover, the TGI is 19.2 µM in assay [7], above 100 µM in [8], above 100 µM in [9] and above 55 µM in [10].
In the case of `CC(C)C[C@H](NC(=O)[C@@H](NC(=O)c1cccc(-c2ccccc2)n1)[C@@H](C)O)B(O)O`, the GI50 is 0.00379 µM and 0.0101 µM in assay [1]; 0.0106 µM and < 0.0106 µM in [2]; 0.00649 µM and 0.019 µM in assay [3]; 0.00425 µM in [4]; 0.00633 µM in [5]; 0.00414 µM in assay [6]. Further, the GI50 is 0.00421 µM in assay [7]; 0.0151 µM and 0.0193 µM in [8]; 0.616 µM and 0.106 µM in assay [9]; 0.00506 µM in assay [10]. The TGI in assay [1] was 0.162 µM and 0.0287 µM; in assay [2] it was 0.0358 µM and 0.0391 µM; in assay [3], 30.8 µM; in assay [4], 36.8 µM; in [6], 0.0151 µM and < 0.0119 µM; in [7], 0.0177 µM and < 0.0114 µM. Also, the TGI was 0.413 µM in assay [8], above 52.4 µM in [9] and 0.0231 µM in [10].
Regarding `CN1C[C@@H]2Cn3c(c(C4=C(c5cn(C)c6ccccc56)C(=O)NC4=O)c4ccccc43)C[C@H]2C1`, the GI50 was 5.48 µM and 3.63 µM in assay [1]; 4.29 µM and 4.01 µM in assay [2]; 4.9 µM and 2.37 µM in assay [3]; 3.6 µM and 3.15 µM in assay [4]; 4.96 µM and 6.11 µM in [5]; 3.53 µM and 3.17 µM in assay [6]. Also, the GI50 is 4.17 µM and 3.68 µM in [7]; 3.45 µM and 3.3 µM in assay [8]; 6.44 µM and 5.87 µM in [9]; 4.26 µM and 5.32 µM in assay [10]. Moreover, the TGI in assay [1] is 10.5 µM and 8.53 µM; in [2] it was 9.32 µM and 8.42 µM; in [3] it was 10.4 µM and 6.88 µM; in assay [4], 8.7 µM and 9.66 µM; in assay [5], 10.7 µM and 15.3 µM; in assay [6] it was 7.19 µM and 6.68 µM. Also, the TGI in assay [7] was 8.01 µM and 7.28 µM; in assay [8], 8.8 µM and 8.65 µM; in [9], 18.4 µM and 16.4 µM; in assay [10], 9.46 µM and 11.5 µM.
In the case of `Cc1cnccc1N=Nc1ccc(N(C)C)cc1`, the TGI in [1] is above 100 µM; in [2], above 100 µM; in assay [3], 76.7 µM; in assay [4] it was 35 µM; in assay [5], 68.6 µM; in [6], 53 µM. Moreover, the TGI was 29.5 µM in [7], 72.6 µM in assay [8], above 100 µM in assay [9] and above 100 µM in [10].
Turning to `C=C1C(=O)OC2/C=C(\CO)CC/C=C(\CO)CC(OC(=O)C(C)C)C12` (centres undefined), the TGI in assay [1] is above 24.8 µM; in assay [2], 36.3 µM; in assay [3] it was above 24.2 µM; in assay [4] it was 8.85 µM; in assay [5] it was 38.5 µM; in assay [6] it was 19.3 µM. Further, the TGI in assay [7] came out at 36 µM; in assay [8], 26.1 µM; in assay [9], 45.9 µM; in assay [10] it was 24.8 µM.
Regarding `Fc1ccc2c(c1)C1=C(CO2)C(c2ccc(Cl)cc2)NC(=S)N1` (centres undefined), the GI50 in assay [1] is 31.6 µM; in assay [3], 30.4 µM; in assay [4] it was 18.1 µM; in assay [5], 26 µM; in [7] it was 19.2 µM; in assay [8], 17.7 µM. Besides, the GI50 was 44.1 µM in assay [9] and 63.2 µM in [10]. Also, the TGI in assay [1] was above 100 µM; in assay [3] it was above 100 µM; in assay [4], 42.2 µM; in [5] it was 58.5 µM; in assay [7], 49.5 µM; in assay [8], 40.2 µM. Besides, the TGI in [9] and in assay [10] was above 100 µM each time.
On to `Cc1cc(N(CCCNc2ccnc3cc(Cl)ccc23)Cc2ccc3c(c2)OCO3)nc(N2CCCCC2)n1`, for which the GI50 in [2] was 1.74 µM; in assay [4], 1.77 µM; in assay [5] it was 2.67 µM; in assay [6], 1.52 µM; in [7], 1.75 µM; in assay [8] it was 2.87 µM. In addition, the GI50 in assay [9] was 3.47 µM; in assay [10] it was 1.99 µM. The TGI amounted to 5.17 µM in assay [2]; 4.84 µM in assay [4]; 13.3 µM in [5]; 3.12 µM in assay [6]; 3.14 µM in assay [7]; 12 µM in assay [8]. Also, the TGI in assay [9] is 15.1 µM; in [10] it was 4.82 µM.
As for `CCCCCCCCCCCCCCCCCCOc1ccccc1CC(=O)NCC[N+](C)(C)C`, the GI50 in assay [2] is 2.32 µM; in assay [3], 3.2 µM; in assay [4], 3.77 µM; in assay [5] it was 5.07 µM; in assay [7], 6.59 µM; in assay [8] it was 3.67 µM. Moreover, in assay [10], the GI50 is 7.6 µM. Besides, the TGI in assay [2] was 6.9 µM; in assay [3], above 100 µM; in assay [4] it was 34.9 µM; in assay [5] it was 35.4 µM; in assay [7] it was 45.8 µM; in [8] it was 37.9 µM. This molecule yielded a TGI in [10] of 58.9 µM.
Take `C=C(CNC(=O)c1ccccc1)c1ccc(C(=O)Nc2ccccc2N)cc1`: the GI50 in assay [2] is 63.7 µM; in assay [3], 1.26 µM; in assay [4], 3.2 µM; in assay [5] it was 18.7 µM; in assay [6], 3.08 µM; in assay [7] it was 2.67 µM. The GI50 was 1.09 µM in assay [8], 80.2 µM in assay [9] and 4.99 µM in assay [10]. Also, the TGI is above 100 µM in [2]; above 100 µM in assay [3]; above 100 µM in [4]; above 100 µM in [5]; above 100 µM in [6]; 14.9 µM in assay [7]. Also, the TGI was 8.93 µM in assay [8], above 100 µM in [9] and above 100 µM in assay [10].
In the case of `Nc1c(C(=O)N/N=C/c2ccc(-c3cc(Cl)c(Cl)cc3Cl)o2)cnn1-c1ccnc2c(C(F)(F)F)cccc12`, the GI50 was 3.18 µM in assay [1]; 5.24 µM in [2]; 3 µM in assay [3]; 3.42 µM in assay [4]; 3.32 µM in [5]; 3.74 µM in assay [7]. Further, the GI50 in assay [8] is 4.42 µM; in assay [9], 4.17 µM; in assay [10] it was 2.93 µM. Further, the TGI in [1] was above 100 µM; in assay [2] it was above 100 µM; in [3], above 100 µM; in assay [4] it was above 100 µM; in [5], 47.2 µM; in assay [7], 14.6 µM. Further, the TGI in assay [8], in assay [9] and in assay [10] was above 100 µM in each case.
`COC(=O)[C@H](C)NC(=O)[C@@H](OC)[C@@H]1Cc2cc3cc(OC4CC(OC5CC(O)C(O)C(C)O5)C(O)C(C)O4)c(C)c(O)c3c(O)c2C(=O)[C@H]1OC1CC(OC2CC(OC3CC(C)(O)C(O)C(C)O3)C(O)C(C)O2)C(O)C(C)O1` (some centres undefined): the GI50 in assay [1] is 0.894 µM; in [2], 0.0774 µM; in assay [3], 0.179 µM; in assay [4], 0.0236 µM; in [5] it was 0.0939 µM; in [7], 0.0358 µM. The GI50 in [8] is 0.101 µM; in [9], 0.132 µM; in [10], 0.143 µM. Also, the TGI was 10.6 µM in assay [1]; above 50 µM in assay [2]; above 50 µM in assay [3]; above 50 µM in assay [4]; above 50 µM in [5]; 0.355 µM in assay [7]. Also, the TGI in assay [8], in assay [9] and in assay [10] was above 50 µM each time.
Take `c1ccc(B2OCC(C3OB(c4ccccc4)OC4COB(c5ccccc5)OC43)O2)cc1` (centres undefined): the TGI in assay [2], in assay [3], in assay [4], in [5], in assay [6] and in assay [7] was above 100 µM each time. Also, the TGI in assay [8], in [9] and in assay [10] was above 100 µM in each case.

The record behind these values is PubChem BioAssay (NCI).
